In PubChem BioAssay AID330 (DTP/NCI, 2004):
Where “and” joins values, the source holds several entries; their conditions need not be identical. Equal entries are not always repeated. Toxic doses and inconclusive results are not listed. How the source made its calls: active means survival T/C of 150% or more; inactive means T/C below 125% in these data.

Tested on: P388 leukemia ip, CD2F1 mice, survival T/C
Assay: NCI In Vivo Anticancer Drug Screen. Data for tumor model P388 Leukemia (intraperitoneal) in CD2F1 (CDF1) mice
Details: endpoint: median survival time, higher = longer survival
Method in brief: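 Mice carrying the transplanted tumor received test compound or vehicle. Survival was recorded in each group, and the value is the treated-group measurement divided by that of the vehicle-treated control group.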

[1] = dose: 50.0 mg/kg/injection, schedule: Q01DX005 (ip), vehicle: saline with Tween-80
[2] = dose: 50.0 mg/kg/injection, schedule: Q01DX009 (ip), vehicle: saline with Tween-80
[3] = dose: 100.0 mg/kg/injection, schedule: Q01DX009 (ip), vehicle: saline with Tween-80
[4] = dose: 200.0 mg/kg/injection, schedule: Q01DX009 (ip), vehicle: saline with Tween-80
[5] = dose: 50.0 mg/kg/injection, schedule: Q01DX009 (ip), vehicle: Klucel (hydroxypropylcellulose) (HPC)
[6] = dose: 60.0 mg/kg/injection, schedule: Q01DX005 (ip), vehicle: saline with Tween-80
[7] = dose: 120.0 mg/kg/injection, schedule: Q01DX005 (ip), vehicle: saline with Tween-80
[8] = dose: 240.0 mg/kg/injection, schedule: Q01DX005 (ip), vehicle: saline with Tween-80
[9] = dose: 100.0 mg/kg/injection, schedule: Q01DX001 (ip), vehicle: Klucel (hydroxypropylcellulose) (HPC)
[10] = dose: 200.0 mg/kg/injection, schedule: Q01DX001 (ip), vehicle: Klucel (hydroxypropylcellulose) (HPC)
[11] = dose: 400.0 mg/kg/injection, schedule: Q01DX001 (ip), vehicle: Klucel (hydroxypropylcellulose) (HPC)

Measured: T/C

O=C(O)c1c2ccccc2nc2ccccc12
inactive: dose: 12.5 mg/kg/injection, schedule: Q01DX005 (ip), vehicle: saline with Tween-80 106 % of control and 93 % of control | dose: 25.0 mg/kg/injection, schedule: Q01DX005 (ip), vehicle: saline with Tween-80 100 % of control and 95 % of control | [1] 104 % of control and 113 % of control and 121 % of control

O=C(/C=C/C=C/c1ccccc1)c1ccco1
inactive: [2] 94 % of control | [3] 94 % of control | [4] 99 % of control

CS(=O)(=O)c1ccccc1NN
inactive: [5] 111 % of control | dose: 100.0 mg/kg/injection, schedule: Q01DX009 (ip), vehicle: Klucel (hydroxypropylcellulose) (HPC) 105 % of control | dose: 200.0 mg/kg/injection, schedule: Q01DX009 (ip), vehicle: Klucel (hydroxypropylcellulose) (HPC) 100 % of control

CCCCN(CCCC)C(=N)c1ccnc2ccccc12
inactive: dose: 6.25 mg/kg/injection, schedule: Q01DX005 (ip), vehicle: saline 95 % of control | dose: 12.5 mg/kg/injection, schedule: Q01DX005 (ip), vehicle: saline 97 % of control | dose: 25.0 mg/kg/injection, schedule: Q01DX005 (ip), vehicle: saline 97 % of control

O=C(/C=C/c1ccccc1)c1cc2c(cc1O)OCO2
inactive: [6] 103 % of control | [7] 107 % of control | [8] 100 % of control

O=c1oc(-c2nc3sc4c(c3c(=O)o2)CCCC4)nc2sc3c(c12)CCCC3
inactive: dose: 50.0 mg/kg/injection, schedule: Q01DX005 (ip), vehicle: Klucel (hydroxypropylcellulose) (HPC) 100 % of control | dose: 100.0 mg/kg/injection, schedule: Q01DX005 (ip), vehicle: Klucel (hydroxypropylcellulose) (HPC) 100 % of control | dose: 200.0 mg/kg/injection, schedule: Q01DX005 (ip), vehicle: Klucel (hydroxypropylcellulose) (HPC) 93 % of control

O=C(Nc1ccccc1)C1(Cl)CCCCC1
inactive: [9] 90 % of control | [10] 92 % of control | [11] 91 % of control

Nc1nc(N)c2cc(C=O)ccc2n1
inactive: dose: 0.39 mg/kg/injection, schedule: Q01DX009 (ip), vehicle: distilled water + Tween-80 100 % of control | dose: 0.78 mg/kg/injection, schedule: Q01DX009 (ip), vehicle: distilled water + Tween-80 101 % of control | dose: 1.56 mg/kg/injection, schedule: Q01DX009 (ip), vehicle: distilled water + Tween-80 110 % of control | dose: 3.13 mg/kg/injection, schedule: Q01DX009 (ip), vehicle: distilled water + Tween-80 100 % of control | dose: 6.25 mg/kg/injection, schedule: Q01DX009 (ip), vehicle: distilled water + Tween-80 109 % of control

CC(N)C(=O)NCC(=O)NCC(=O)O (centres undefined)
inactive: dose: 50.0 mg/kg/injection, schedule: Q01DX005 (ip), vehicle: saline 100 % of control | dose: 100.0 mg/kg/injection, schedule: Q01DX005 (ip), vehicle: saline 106 % of control | dose: 200.0 mg/kg/injection, schedule: Q01DX005 (ip), vehicle: saline 99 % of control

CC(C)CC(N)C(=O)NC(Cc1cc2ccccc2[nH]1)C(=O)O (centres undefined)
inactive: [2] 101 % of control | [3] 107 % of control | [4] 104 % of control

O=C(NCc1ccccc1)c1ccccc1NS(=O)(=O)c1ccc(Cl)c(Cl)c1
inactive: [1] 96 % of control | dose: 100.0 mg/kg/injection, schedule: Q01DX005 (ip), vehicle: saline with Tween-80 87 % of control | dose: 200.0 mg/kg/injection, schedule: Q01DX005 (ip), vehicle: saline with Tween-80 93 % of control

CCC[CH2][Sn]([CH2]CCC)([CH2]CCC)[CH2]CCCNCCCN(C)C
inactive: dose: 50.0 mg/kg/injection, schedule: Q01DX009 (ip), vehicle: saline 97 % of control | dose: 100.0 mg/kg/injection, schedule: Q01DX009 (ip), vehicle: saline 100 % of control

Cc1cc(Cl)n2nc(-c3ccc(Cl)cc3)nc2n1
inactive: dose: 12.5 mg/kg/injection, schedule: Q01DX009 (ip), vehicle: Klucel (hydroxypropylcellulose) (HPC) 106 % of control | dose: 25.0 mg/kg/injection, schedule: Q01DX009 (ip), vehicle: Klucel (hydroxypropylcellulose) (HPC) 100 % of control | [5] 109 % of control and 110 % of control

COC(=O)c1cccnc1C#N
inactive: dose: 30.0 mg/kg/injection, schedule: Q01DX005 (ip), vehicle: Klucel (hydroxypropylcellulose) (HPC) 100 % of control | dose: 60.0 mg/kg/injection, schedule: Q01DX005 (ip), vehicle: Klucel (hydroxypropylcellulose) (HPC) 110 % of control | dose: 120.0 mg/kg/injection, schedule: Q01DX005 (ip), vehicle: Klucel (hydroxypropylcellulose) (HPC) 102 % of control | dose: 240.0 mg/kg/injection, schedule: Q01DX005 (ip), vehicle: Klucel (hydroxypropylcellulose) (HPC) 112 % of control

CCCCCCCCCc1cc(=O)[nH]c(=O)[nH]1
inactive: [9] 96 % of control | [10] 96 % of control | [11] 94 % of control

CC(C)c1cccc(C(C)C)c1N1C(=O)C(=O)C(c2nc3ccccc3s2)C(=O)C1=O
inactive: [6] 103 % of control | [7] 102 % of control | [8] 103 % of control

N[C@H](C(=O)O)[C@H]1ON=C(Cl)[C@@H]1O
inactive: dose: 0.13 mg/kg/injection, schedule: Q01DX009 (ip), vehicle: saline 104 % of control and 98 % of control | dose: 0.25 mg/kg/injection, schedule: Q01DX009 (ip), vehicle: saline 106 % of control and 113 % of control | dose: 0.5 mg/kg/injection, schedule: Q01DX009 (ip), vehicle: saline 112 % of control | dose: 1.0 mg/kg/injection, schedule: Q01DX009 (ip), vehicle: saline 117 % of control and 121 % of control | dose: 2.0 mg/kg/injection, schedule: Q01DX009 (ip), vehicle: saline 124 % of control
active: dose: 4.0 mg/kg/injection, schedule: Q01DX009 (ip), vehicle: saline 153 % of control | dose: 8.0 mg/kg/injection, schedule: Q01DX009 (ip), vehicle: saline 153 % of control | dose: 16.0 mg/kg/injection, schedule: Q01DX009 (ip), vehicle: saline 198 % of control

c1ccc2c3c(ccc2c1)-c1ccc2ccccc2c1OP1(=NP(N2CC2)(N2CC2)=NP(N2CC2)(N2CC2)=N1)O3
inactive: dose: 100.0 mg/kg/injection, schedule: Q04DX002 (ip), vehicle: Klucel (hydroxypropylcellulose) (HPC) 100 % of control | dose: 200.0 mg/kg/injection, schedule: Q04DX002 (ip), vehicle: Klucel (hydroxypropylcellulose) (HPC) 99 % of control | dose: 400.0 mg/kg/injection, schedule: Q04DX002 (ip), vehicle: Klucel (hydroxypropylcellulose) (HPC) 103 % of control

CC(O)C(O)C(O)C(C=O)OC1OC(C)C(O)C(O)C1O (centres undefined)
inactive: dose: 2.5 mg/kg/injection, schedule: Q01DX005 (ip), vehicle: saline + alcohol 99 % of control | dose: 5.0 mg/kg/injection, schedule: Q01DX005 (ip), vehicle: saline + alcohol 96 % of control | dose: 10.0 mg/kg/injection, schedule: Q01DX005 (ip), vehicle: saline + alcohol 110 % of control | dose: 20.0 mg/kg/injection, schedule: Q01DX005 (ip), vehicle: saline + alcohol 91 % of control

O=C1CCSC(=S)N1c1ccc(F)cc1
inactive: dose: 50.0 mg/kg/injection, schedule: Q01DX009 (ip), vehicle: suspension in saline 99 % of control | dose: 100.0 mg/kg/injection, schedule: Q01DX009 (ip), vehicle: suspension in saline 106 % of control | dose: 200.0 mg/kg/injection, schedule: Q01DX009 (ip), vehicle: suspension in saline 90 % of control

CCCOP(=S)(N1CC1C)N1CC1(C)C (centres undefined)
inactive: dose: 12.5 mg/kg/injection, schedule: Q04DX003 (ip), vehicle: saline with Tween-80 122 % of control | [3] 113 % of control | dose: 150.0 mg/kg/injection, schedule: Q04DX003 (ip), vehicle: saline with Tween-80 118 % of control
active: dose: 50.0 mg/kg/injection, schedule: Q04DX003 (ip), vehicle: saline with Tween-80 154 % of control | dose: 66.0 mg/kg/injection, schedule: Q04DX003 (ip), vehicle: saline with Tween-80 186 % of control | dose: 100.0 mg/kg/injection, schedule: Q04DX003 (ip), vehicle: saline with Tween-80 227 % of control
